# Source: ChEMBL document CHEMBL3826975, “New indolizine-chalcones as potent inhibitors of human farnesyltransferase: Design, synthesis and biological evaluation” (Bioorg Med Chem Lett, 2016)
# Experiments:
# [1] = molecular target: T1, Protein farnesyltransferase (Homo sapiens, UniProt P49354+P49356); test: Inhibition of human recombinant farnesyltransferase using farnesylpyrophosphate and dansyl-GCVLS as substrate at 100 uM measured for 15 mins by fluorescence assay; assay type: protein-complex assay
# [2] = molecular target: T1, Protein farnesyltransferase; test: Inhibition of human recombinant farnesyltransferase using farnesylpyrophosphate and dansyl-GCVLS as substrate measured for 15 mins by fluorescence assay; assay type: protein-complex assay
SMILES,inhibition [1] [%],IC50 [2] [nM]
CCOC(=O)c1cc(C(=O)/C=C/c2ccc(Br)cc2)n2ccc(OC)cc12,100,602
CCOC(=O)c1cc(C(=O)/C=C/c2ccc3c(c2)Sc2ccccc2N3C)n2ccc(C)cc12,98,155
CCOC(=O)c1cc(C(=O)/C=C/c2ccc3c(c2)Sc2ccccc2N3C)n2ccccc12,85,9
CSCC[C@H](NC(=O)c1ccc(NC[C@@H](N)CS)cc1-c1ccccc1)C(=O)O,100,
CCOC(=O)c1cc(C(=O)/C=C/c2ccc(Cl)cc2)n2ccc(OC)cc12,85,931
CCOC(=O)c1cc(C(=O)/C=C/c2ccc(OC)cc2)n2ccc(OC)cc12,68,
CCOC(=O)c1cc(C(=O)/C=C/c2ccc3c(c2)Sc2ccccc2N3C)n2ccc(OC)cc12,84,711
CCOC(=O)c1cc(C(=O)/C=C/c2ccc(-c3ccccc3)cc2)n2ccc(OC)cc12,95,1320
COc1ccn2c(C(=O)/C=C/c3ccc(Cl)cc3)cc(C(=O)O)c2c1,88,2330
CCOC(=O)c1cc(C(=O)/C=C/c2cc(OC)c(OC)c(OC)c2)n2ccc(OC)cc12,76,11600
COc1cc(/C=C/C(=O)c2ccc3c(C)cc(C)cn23)cc(OC)c1OC,88,726
CCOC(=O)c1cc(C(=O)/C=C/c2cc(OC)c(OC)c(OC)c2)n2ccccc12,94,19300
CCOC(=O)c1cc(C(=O)/C=C/c2cc(OC)c(OC)c(OC)c2)n2c(C)cccc12,7,
CCOC(=O)c1cc(C(=O)/C=C/c2ccc3c(c2)Sc2ccccc2N3C)n2c(C)cccc12,91,23
CCOC(=O)c1cc(C(=O)/C=C/c2ccc(C#N)cc2)n2ccc(OC)cc12,95,8740
COc1cc(/C=C/C(=O)c2cc(C(=O)O)c3c(C)cc(C)cn23)cc(OC)c1OC,88,15900
